# In US10870627B2, “Salt of quinazoline derivative, preparation method therefor and application thereof” (SHANGHAI PHARMACEUTICALS HOLDING CO., LTD., priority 2016, dated 2020):
# Where two headings read alike, the source gives them in different places.
# What was measured:
# [1] = Dynamic vapor sorption (DVS), isothermal absorption analysis; assay type: physicochemical
# Method: In the present invention, according to the common knowledge in the art, the amount of water absorption obtained from the dynamic vapor sorption (DVS) pattern is expressed in percentage by weight.
# The isothermal absorption analysis (DVS) data was collected from TA Instruments Q5000 TGA. The software for instrument control was Thermal Advantage and software for analysis was Universal Analysis. 1-10 mg of the sample was generally placed in a platinum crucible, and the weight change of the sample during the relative humidity changing from 20% to 80% was recorded by the TA software. Depending on the specifics of the sample, different steps of sample adsorption and desorption were also involved.
# [2] = Solid-state stability test; assay type: physicochemical
# Method: An appropriate amount of the drugs were placed in the surface dish, spread to a thickness of 3-5 mm, and exposed in high temperature, high temperature and high humidity, illumination and oxidation conditions for 10 days respectively, and the solid-state characterization was performed. The purity and the number of impurities 0.05%) of the samples for testing were determined by HPLC, and compared with the samples on day 0. The exposure conditions are:
# High temperature (an oven with T=60° C.);
# Illumination (25° C., a 4500±500 lx light incubator);
# Oxidation (25° C., a closed container containing urea hydrogen peroxide).
# Solution stability test = assay type: physicochemical
# Method: About 15 mg of the sample was weighed accurately, dissolved with 25 mL of the test solvent (10% aqueous acetone solution, pH=4.0 B-R buffer solution, SGF, SIF) via ultrasound for 20 minutes. The solution was divided into four portions and placed in the clear glass vials, followed by sealing. The samples were exposed in different environments and sampled on day 0 and day 5. The purity of each sample was determined by HPLC, and the number of impurities greater than 0.05% was calculated and compared with the samples on day 0. The exposure environments are:
# Room temperature and light-proof test, 25° C.; […]
# Illumination experiment (4500±500 lx), 25° C.;
# Oxidation experiment (3% v/v hydrogen peroxide), 25° C.
# [3] = Water solubility at 20° C. determined by HPLC; assay type: physicochemical
# Method: The solubility was determined as follows: a certain amount of the sample was weighed and the solvent was added thereto in portions with stirring or ultrasonication to accelerate dissolution; the amount of the consumed solvent was recorded once the sample was dissolved. […] A certain volume of the solution was taken, followed by filtration, concentration, dissolved with a certain volume of other suitable solvents and subjected to HPLC measurement to obtain accurate data of the solubility.
# [4] = Comparison of absorption in rats after intragastric administration of free base and salt (plasma pharmacokinetics); assay type: in vivo, SD rats
# Method: The blood sample was centrifuged at 8000 RPM for 5 minutes, followed by the isolation of the upper plasma. […] 200 μL of the supernatant was taken and centrifuged again for 10 minutes. 50 μL of the supernatant was injected in a 96-well plate. The plasma drug concentration was determined by LC/MS/MS, and the corresponding pharmacokinetic parameters were calculated.
# [5] = 10 d, High temperature (oven, T=60° C.)
# [6] = 10 d, High temperature and high humidity (40° C., 75% relative humidity)
# [7] = 10 d, Illumination (25° C., 4500±500 lx)
# [8] = 10 d, Oxidation (25° C., closed container with urea hydrogen peroxide)
# [9] = 10% aqueous acetone solution, 0 d
# [10] = 10% aqueous acetone solution, 0 d, impurities greater than 0.05%
# [11] = 10% aqueous acetone solution, 5 d, High temperature
# [12] = 10% aqueous acetone solution, 5 d, High temperature and high humidity
# [13] = 10% aqueous acetone solution, 5 d, Illumination (4500±500 lx, 25° C.)
# [14] = 10% aqueous acetone solution, 5 d, Oxidation (3% v/v hydrogen peroxide, 25° C.)
# [15] = B-R Buffer solution (pH=4.0), 0 d, impurities greater than 0.05%
# [16] = B-R Buffer solution (pH=4.0), 5 d, High temperature
# [17] = B-R Buffer solution (pH=4.0), 5 d, High temperature and high humidity
# [18] = B-R Buffer solution (pH=4.0), 5 d, Illumination (4500±500 lx, 25° C.)
# [19] = B-R Buffer solution (pH=4.0), 5 d, Oxidation (3% v/v hydrogen peroxide, 25° C.)
# [20] = SGF, 0 d, impurities greater than 0.05%
# [21] = SGF, 5 d, High temperature and high humidity
# [22] = SGF, 5 d, Illumination (4500±500 lx, 25° C.)
# [23] = SGF, 5 d, Oxidation (3% v/v hydrogen peroxide, 25° C.)
# [24] = SIF, 0 d, impurities greater than 0.05%
# [25] = SIF, 5 d, High temperature and high humidity
# [26] = SIF, 5 d, Illumination (4500±500 lx, 25° C.)
# [27] = SIF, 5 d, Oxidation (3% v/v hydrogen peroxide, 25° C.)
# [28] = SD rats, 20 μmol/kg, intragastric administration, plasma
# [29] = rat, po, 20 umol/kg, SD rats, intragastric administration, plasma
smiles,measurement,setting,value
C=C(F)C(=O)Nc1cc2c(Nc3ccc(F)c(Cl)c3)ncnc2cc1OCCCN1CCOCC1.O.O.O=C(O)CC(O)(CC(=O)O)C(=O)O [crystal form 7 of the dihydrate],weight change (water absorbed) by DVS,[1]; relative humidity range of 10-80%,0.38%
C=C(F)C(=O)Nc1cc2c(Nc3ccc(F)c(Cl)c3)ncnc2cc1OCCCN1CCOCC1.O=S(=O)(O)c1ccccc1,Number of impurities,[2]; 0 d,2
same,Number of impurities,[2]; [5],2
same,Number of impurities,[2]; [6],2
same,Number of impurities,[2]; [7],2
same,Number of impurities,[2]; [8],2
same,Purity,Solution stability test; [9],98.2%
same,Number of impurities,Solution stability test; [10],1
same,Number of impurities,Solution stability test; [11],1
same,Purity,Solution stability test; [11],97.9%
same,Number of impurities,Solution stability test; [12],3
same,Number of impurities,Solution stability test; [13],1
same,Purity,Solution stability test; [13],97.6%
same,Number of impurities,Solution stability test; [14],7
same,Purity,Solution stability test; [14],60.8%
same,Number of impurities,Solution stability test; [15],2
same,Number of impurities,Solution stability test; [16],3
same,Purity,Solution stability test; [16],97.2%
same,Number of impurities,Solution stability test; [17],3
same,Purity,Solution stability test; [17],97.2%
same,Number of impurities,Solution stability test; [18],1
same,Number of impurities,Solution stability test; [19],12
same,Purity,Solution stability test; [19],38.1%
same,Number of impurities,Solution stability test; [20],1
same,Number of impurities,"Solution stability test; SGF, 5 d, High temperature",2
same,Number of impurities,Solution stability test; [21],2
same,Purity,Solution stability test; [21],94.4%
same,Number of impurities,Solution stability test; [22],1
same,Number of impurities,Solution stability test; [23],3
same,Purity,Solution stability test; [23],81.7%
same,Purity,"Solution stability test; SIF, 0 d",80.2%
same,Number of impurities,Solution stability test; [24],2
same,Number of impurities,"Solution stability test; SIF, 5 d, High temperature",1
same,Purity,"Solution stability test; SIF, 5 d, High temperature",58.7%
same,Number of impurities,Solution stability test; [25],8
same,Purity,Solution stability test; [25],42.0%
same,Number of impurities,Solution stability test; [26],9
same,Purity,Solution stability test; [26],10.0%
same,Purity,Solution stability test; [27],Complete
same,water solubility at 20° C. determined by HPLC,[3],60.4 µg/mL
same,AUC (0-t),[4]; [28],972.26 ± 291.88 µM·min
same,MRT (0-T),[4]; [28],5.9522 ± 0.2533 h
same,Tmax,[4]; [28],1.333 ± 0.5773 h
same,t1/2,[4]; [28],5.0897 ± 2.1273 h
same,Cmax,"[4]; SD rats, 20 μmol/kg, intragastric administration, plasma, listed as monobenzenesulfonate",2300 ± 470 nM
same,"hygroscopicity, in words",[1],not easy to absorb moisture
"C=C(F)C(=O)Nc1cc2c(Nc3ccc(F)c(Cl)c3)ncnc2cc1OCCCN1CCOCC1 [N-[4-(3-chloro-4-fluoroanilino)]-7-(3-morpholinopropoxy)-6-(2-fluoroacrylamido)-quinazoline, reference compound]",Number of impurities,[2]; 0 d,1
same,Number of impurities,[2]; [5],2
same,Purity,[2]; [5],99.0%
same,Number of impurities,[2]; [6],3
same,Purity,[2]; [6],99.0%
same,Number of impurities,[2]; [7],2
same,Purity,[2]; [7],99.0%
same,Number of impurities,[2]; [8],3
same,Purity,[2]; [8],99.0%
same,Purity,Solution stability test; [9],93.4%
same,Number of impurities,Solution stability test; [10],2
same,Number of impurities,Solution stability test; [11],2
same,Purity,Solution stability test; [11],83.1%
same,Number of impurities,Solution stability test; [12],6
same,Purity,Solution stability test; [12],13.3%
same,Number of impurities,Solution stability test; [13],4
same,Purity,Solution stability test; [13],61.5%
same,Purity,Solution stability test; [14],Complete
same,Purity,"Solution stability test; B-R Buffer solution (pH=4.0), 0 d",99.0%
same,Number of impurities,Solution stability test; [15],1
same,Number of impurities,Solution stability test; [16],1
same,Purity,Solution stability test; [16],99.0%
same,Number of impurities,Solution stability test; [17],4
same,Purity,Solution stability test; [17],95.0%
same,Number of impurities,Solution stability test; [18],1
same,Purity,Solution stability test; [18],99.0%
same,Number of impurities,Solution stability test; [19],13
same,Purity,Solution stability test; [19],40.6%
same,Purity,"Solution stability test; SGF, 0 d",99.0%
same,Number of impurities,Solution stability test; [20],2
same,Number of impurities,"Solution stability test; SGF, 5 d, High temperature",2
same,Purity,"Solution stability test; SGF, 5 d, High temperature",99.0%
same,Number of impurities,Solution stability test; [21],4
same,Purity,Solution stability test; [21],94.2%
same,Number of impurities,Solution stability test; [22],2
same,Purity,Solution stability test; [22],99.0%
same,Number of impurities,Solution stability test; [23],3
same,Purity,Solution stability test; [23],84.3%
same,Purity,"Solution stability test; SIF, 0 d",88.9%
same,Number of impurities,Solution stability test; [24],1
same,Number of impurities,"Solution stability test; SIF, 5 d, High temperature",2
same,Purity,"Solution stability test; SIF, 5 d, High temperature",85.6%
same,Number of impurities,Solution stability test; [25],4
same,Purity,Solution stability test; [25],81.9%
same,Number of impurities,Solution stability test; [26],18
same,Purity,Solution stability test; [26],50.0%
same,Number of impurities,Solution stability test; [27],5
same,Purity,Solution stability test; [27],62.7%
same,AUC (0-t),"[4]; rat, po, 20 umol/kg, SD rats, 20 μmol/kg, intragastric administration, plasma, read-out: AUC (0-t) (converted)",123 µM·min
same,MRT last,"[4]; rat, po, 20 umol/kg, SD rats, 20 μmol/kg, intragastric administration, plasma, read-out: MRT (0-T) (converted)",6.66 h
same,Tmax,"[4]; rat, po, 20 umol/kg, SD rats, 20 μmol/kg, intragastric administration, plasma, read-out: Tmax (converted)",1 h
same,Cmax,[4]; [29],310 ± 70 nM
same,half-life,[4]; [29],4.28 ± 1.77 h
C=C(F)C(=O)Nc1cc2c(Nc3ccc(F)c(Cl)c3)ncnc2cc1OCCCN1CCOCC1.O=C(O)CC(O)(CC(=O)O)C(=O)O [crystal form 13 of the monocitrate],weight change (water absorbed) by DVS,[1]; relative humidity range of 20-80%,0.2%
C=C(F)C(=O)Nc1cc2c(Nc3ccc(F)c(Cl)c3)ncnc2cc1OCCCN1CCOCC1.O=C(O)[C@H](O)[C@@H](O)[C@H](O)[C@H](O)CO,water solubility at 20° C. determined by HPLC,[3],51.4 µg/mL
same,AUC (0-t),[4]; [28],484.40 ± 201.71 µM·min
same,MRT (0-T),[4]; [28],6.2613 ± 2.5515 h
same,Tmax,[4]; [28],1.333 ± 0.5773 h
same,t1/2,[4]; [28],3.5572 ± 0.3487 h
same,Cmax,"[4]; SD rats, 20 μmol/kg, intragastric administration, plasma, listed as mono-D-gluconate",1120 ± 280 nM
same,"AUC (0-t) and Cmax, comparison in words","[4]; rats, oral, same dose, free base and 6 salts",relatively low
